Data taken from patent publication US20230303547A1, “N-CYANOPYRROLIDINES WITH ACTIVITY AS USP30 INHIBITORS” (MISSION THERAPEUTICS LIMITED, priority 2020, published 2023).
pEC50, pIC50: −log10 of the molar value. ≈ marks a conversion by molar mass, not a printed value.

Columns and labels:
PK mouse 10 mg/kg po = format: in vivo; details: for Unbound plasma Cmax/TOM20-Ub cell potency: 10 mg/kg po dose - mouse; for Oral F: mouse, 10 mg/kg
Description: Oral F: Oral bioavailability.

TOM20 ubiquitylation = assay: TOM20-ubiquitylation assay; format: cell-based, human
Description: (§1) USP30 is a transmembrane protein located in the outer membrane of mitochondria, which are energy-producing organelles present inside cells. […] The USP30 cellular western blot (WB) assay described herein aims to test the activity of compounds against USP30 in cells using an irreversible activity probe to monitor USP30 activity. Analogously to the cellular western blot assay, target engagement assessment (ex vivo) may be carried out in either brain or kidney tissue samples from compound-dosed animals. To extend target binding knowledge to downstream pharmacodynamics, assessment of TOM20 (an outer mitochondrial membrane protein) ubiquitylation may be made.
Human cell lines can be challenged with mitochondrial depolarizing agents (ionophores (eg. CCCP, valinomycin), mitochondrial complex inhibitors (oligomycin, antimycin A)) to induce ubiquitylation of TOM20, which is then further promoted in the presence of USP30 inhibitors. TOM20 ubiquitylation is subsequently assessed through western blotting of the cell lysates, with TOM20 ubiquitylation adduct detection possible due to an 8 kDa molecule weight increase for each molecule of ubiquitin added, resulting in laddering of a TOM20 immunoreactive band. TOM20-ubiquitylation levels can be quantified using chemiluminescence densitometry of laddered immunoreactive bands.

Cathepsin V = Cathepsin V (Homo sapiens (Human), UniProt O60911); assay: Cathepsin V IC50; format: biochemical
Cathepsin V, sequence (O60911 114-334, species assumed): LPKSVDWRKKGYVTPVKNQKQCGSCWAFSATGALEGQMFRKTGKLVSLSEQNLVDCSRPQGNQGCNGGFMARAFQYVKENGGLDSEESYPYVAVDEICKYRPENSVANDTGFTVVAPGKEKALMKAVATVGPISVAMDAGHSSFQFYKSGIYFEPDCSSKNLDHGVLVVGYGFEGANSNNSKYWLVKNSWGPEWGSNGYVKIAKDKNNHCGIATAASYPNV

Cathepsin K = Cathepsin K (Homo sapiens (Human), UniProt P43235); assay: Cathepsin K IC50; format: biochemical
Cathepsin K, sequence (P43235 115-329, species assumed): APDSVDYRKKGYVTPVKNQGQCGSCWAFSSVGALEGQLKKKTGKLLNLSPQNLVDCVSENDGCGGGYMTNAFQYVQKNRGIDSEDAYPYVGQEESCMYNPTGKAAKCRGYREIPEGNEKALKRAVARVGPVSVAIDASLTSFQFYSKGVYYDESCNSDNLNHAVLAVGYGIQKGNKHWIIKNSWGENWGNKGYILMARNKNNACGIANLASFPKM

Turbidimetric solubility = format: physicochemical; details: aqueous buffer, kinetic from dmso stock
Description: The solubility of a compound is an important factor in achieving a desired concentration of drug in systemic circulation for the anticipated pharmacological response. Low aqueous solubility is a problem encountered with formulation development of new chemical entities and to be absorbed a drug must be present in the form of solution at the site of absorption. The kinetic solubility of a compound may be measured using a turbidimetric solubility assay, the data from which may also be used in conjunction with Caco-2 permeability data to predict dose dependent human intestinal absorption.
Turbidimetric solubility: Test compound solution prepared in DMSO diluted into aqueous buffer. Turbidimetry is used as the end-point by measuring absorbance at 620 nm.

Cathepsin S = Cathepsin S (Homo sapiens (Human), UniProt P25774); assay: Cathepsin S IC50; format: biochemical
Cathepsin S, sequence (P25774 115-331, species assumed): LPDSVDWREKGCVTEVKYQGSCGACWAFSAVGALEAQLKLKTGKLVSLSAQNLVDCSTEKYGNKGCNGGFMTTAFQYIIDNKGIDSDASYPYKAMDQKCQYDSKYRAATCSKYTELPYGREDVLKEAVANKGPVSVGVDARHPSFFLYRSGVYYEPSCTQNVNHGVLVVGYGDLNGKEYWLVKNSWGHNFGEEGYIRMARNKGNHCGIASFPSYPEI

Hepatocyte Cl mouse = format: in vitro ADME; details: mouse hepatocytes
Procedure: Hep Cl mouse: in vitro hepatocyte clearance in mouse cells.
(§2) Clu: in vitro clearance. Clu as defined here is the scaled clearance, in turn calculated from the intrinsic clearance. The intrinsic clearance is the predicted clearance due to hepatic metabolic reactions, determined from incubation of a compound in a hepatocyte preparation.

Endogenous USP30 = Endogenous USP30 (Homo sapiens (Human), UniProt Q70CQ3); assay: USP30 endogenous cellular target engagement assay (Cell TE WB); format: cell-based; details: Hela cells stably overexpressing YFP-Parkin, 1 hour
Endogenous USP30, sequence (Q70CQ3 whole entry): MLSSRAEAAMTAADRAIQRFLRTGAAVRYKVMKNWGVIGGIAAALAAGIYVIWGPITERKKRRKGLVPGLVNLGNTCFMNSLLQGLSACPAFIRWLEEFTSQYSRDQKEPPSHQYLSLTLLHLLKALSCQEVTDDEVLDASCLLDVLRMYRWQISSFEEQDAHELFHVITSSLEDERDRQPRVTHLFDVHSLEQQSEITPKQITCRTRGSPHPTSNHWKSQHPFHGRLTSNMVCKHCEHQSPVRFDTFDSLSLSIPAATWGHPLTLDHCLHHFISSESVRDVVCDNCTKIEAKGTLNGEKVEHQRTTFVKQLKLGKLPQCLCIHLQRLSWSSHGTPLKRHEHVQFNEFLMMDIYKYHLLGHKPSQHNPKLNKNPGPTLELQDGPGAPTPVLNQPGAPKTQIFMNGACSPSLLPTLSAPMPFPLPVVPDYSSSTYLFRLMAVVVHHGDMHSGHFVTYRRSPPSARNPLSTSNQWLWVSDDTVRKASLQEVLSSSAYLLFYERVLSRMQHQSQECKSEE
Description: as §1
Hela cells stably overexpressing YFP-Parkin were seeded into 6 well dishes. Once adhered, cells were treated with appropriate concentrations of test compounds or vehicle control for 1 hour at 37° C., 5% CO2. […] USP30 was detected using an anti-USP30 Sheep S746D antibody (MRC PPU Reagents and Services) and a rabbit anti sheep secondary IgG (H+L) horseradish peroxidase conjugated (Thermo #31480) and visualised using ECL reagent (GE #RPN2109) on a GE LAS4000 imager. Target engagement was measured by quantitation of the bands corresponding to USP30 and USP30 bound to the Ub-VME probe and expression of this proportion compared to vehicle treated control.

Hepatocyte Cl human = format: in vitro ADME; details: human hepatocytes
Procedure: Hep Cl human: in vitro hepatocyte clearance in human cells.
as §2

Log D = format: physicochemical; details: pH 7.4; read-out: Log D measured at pH 7.4
Description: log D: distribution co-efficient; lipophilicity measurement.

Cathepsin L = Cathepsin L (Homo sapiens (Human), UniProt P07711); assay: Cathepsin L IC50; format: biochemical
Cathepsin L, sequence (P07711 114-333, species assumed): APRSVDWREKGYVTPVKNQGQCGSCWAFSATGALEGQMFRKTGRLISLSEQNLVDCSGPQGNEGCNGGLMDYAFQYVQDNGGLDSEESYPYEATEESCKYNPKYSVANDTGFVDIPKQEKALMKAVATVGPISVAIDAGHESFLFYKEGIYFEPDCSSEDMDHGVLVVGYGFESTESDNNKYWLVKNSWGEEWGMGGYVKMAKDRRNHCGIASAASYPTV

PK mouse 2 mg/kg iv = format: in vivo; details: for Kp uu: brain and plasma (unbound), 2 mg/kg IV dose - mouse; for clearance: plasma, mouse, 2 mg/kg iv, read-out: Cl plasma
Description: Cl in vivo clearance: Pharmacokinetic measurement of the volume of plasma (or any matrix) from which a substance is completely removed per unit time.
Kpuu is the ratio of unbound drug in brain to unbound drug in plasma and may be indicative of potential for treating peripheral and/or CNS indications.

[1] = system: HCT116 human colorectal carcinoma cells; assay: In vitro cytotoxicity (Cell Tox), alamarBlue; format: cell-based; details: 96-hour continual compound exposure
Description: There is also a need for compounds that have a favourable safety profile, which may be measured by a variety of standard in vitro and in vivo methods. A cell toxicity counter-screen may be used to assay the anti-proliferative/cytotoxic effect in a particular cell line (e.g. HCT116) by fluorometric detection of rezasurin (alamarBlue™) to resofurin in response to mitochondrial activity.
In Vitro Cytotoxicity (Cell Tox): Measured in HCT116 human colorectal carcinoma cells using alamarBlue™ as the assay endpoint. Compound cytotoxicity was measured over a period of 96-hour continual compound exposure.

[2] = Brain homogenate free fraction by equilibrium dialysis; format: in vitro ADME; details: mouse brain homogenate; read-out: Binding Mouse Brain fu,br
Description: Brain fu,br: The free fraction of a compound in brain homogenate preparation determined by in vitro equilibrium dialysis.

Cathepsin B = Cathepsin B (Homo sapiens (Human), UniProt P07858); assay: Cathepsin B IC50; format: biochemical
UCHL1 = UCHL1 (Homo sapiens (Human), UniProt P09936); assay: UCHL1 DUB IC50; format: biochemical
UCHL1, sequence (P09936 whole entry, species assumed): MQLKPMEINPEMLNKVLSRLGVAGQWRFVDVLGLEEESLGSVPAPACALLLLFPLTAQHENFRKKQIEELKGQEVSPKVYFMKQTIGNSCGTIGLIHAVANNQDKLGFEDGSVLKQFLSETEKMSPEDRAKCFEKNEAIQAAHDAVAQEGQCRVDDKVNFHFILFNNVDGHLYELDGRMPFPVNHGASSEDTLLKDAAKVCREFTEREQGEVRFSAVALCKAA

Row | SMILES | Unbound plasma Cmax/TOM20-Ub cell potency (PK mouse 10 mg/kg po) | Oral F (PK mouse 10 mg/kg po) | TOM20-Ub 1.5-fold gain, Antimycin A/oligomycin mitophagy trigger EC1.5x (TOM20 ubiquitylation) | pIC50 (Cathepsin V) | pIC50 (Cathepsin K) | solubility (Turbidimetric solubility) | pIC50 (Cathepsin S) | Hepatocyte Cl mouse Scaled Clu (Hepatocyte Cl mouse) | pEC50 (Endogenous USP30) | Hepatocyte Cl human Scaled Clu (Hepatocyte Cl human) | logD (Log D) | pIC50 (Cathepsin L) | Kp uu (PK mouse 2 mg/kg iv) | clearance (PK mouse 2 mg/kg iv) | pEC50 ([1]; Homo sapiens, HCT-116, 96 h) | fraction unbound [2] | pIC50 (Cathepsin B) | pIC50 (UCHL1) | pEC50 [1]
1 | C[C@@H]1C[C@@H](NC(=O)c2ncc(-c3cc(C#N)ccc3OC3CC3)o2)CN1C#N [Example 1, 5-(5-cyano-2-cyclopropoxyphenyl)-N-((3R,5R)-1-cyano-5-methylpyrrolidin-3-yl)oxazole-2-carboxamide] | 45 | 37% | 0.006 µM | 4.51 | 4.98 | 65 µM (≈ 24.5 µg/mL) | 4.26 | 117 mL/min/kg | 8.70 | 18.6 mL/min/kg | 2.5 | 5.00 | 0.02 | 41 mL/min/kg | 4.62 | 0.06 | 3.97 | < 3.52 | –
2 | COC[C@@H]1C[C@@H](NC(=O)c2ncc(-c3cc(C#N)ccc3OC3CC3)o2)CN1C#N [Example 2, 5-(5-cyano-2-cyclopropoxyphenyl)-N-((3R,5S)-1-cyano-5-(methoxymethyl)pyrrolidin-3-yl)oxazole-2-carboxamide] | 140 | 47% | 0.007 µM | 4.22 | 4.72 | > 100 µM | 4.04 | 105 mL/min/kg | 8.52 | 5.0 mL/min/kg | 2.2 | 4.63 | 0.01 | 20 mL/min/kg | 4.57 | 0.2 | < 3.52 | < 3.52 | < 4.52
